In paper PMC9643456, “Matching amino acids membrane preference profile to improve activity of antimicrobial peptides” (Communications Biology, 2022):
In brackets after ≈: the same amount, converted by molar mass. Square brackets hold non-standard residues; d marks the D form. Ends that are not written are not given here. Peptide text beside a SMILES is read from it.

Key:
[1] = Maximum soluble concentration / turbidity; type: physicochemical; details: for Maximum soluble concentration in PBS: lyophilized peptide reconstructed in PBS at 200-6.25 μM, visible turbidity checked every 12 h for 5 days, at least twice
Experimental: Supplementary Methods Bacteria preparation, Antimicrobial peptides preparation, Minimal-inhibitory-concentration measurements, Hemolysis-activity measurements, Tryptophan fluorescence measurements, Isothermal titration calorimetry measurements, Bacteria membrane ion permeation measurements, Outer-inner membrane permeation, Field-emission scanning electron microscopy and Antimicrobial kinetics were performed as described in Materials and Methods. Liposome (LUV) preparation. Bacterial-membrane-mimic DMPC/DMPG unilamellar vesicles (LUV) and mammalian- membrane-mimic PC/cholesterol vesicles with 100-nm diameters were prepared by extrusion. LiposoFast Liposome Factory Basic unit with stabilizer (Avestin, Ottawa, Canada) was used to extrude liposomes 50 times through a polycarbonate membrane filter (pore diameter, 100 nm; filter diameter, 0.75 inches) (Avestin). […] rac-(1-glycerol)) (sodium salt) (DMPG) (Avanti, Alabama, USA); 1,2-Dimyristoyl-sn-glycero-3-phosphocholine (DMPC) (Avanti); and cholesterol (Sigma, Darmstadt, Germany) were used. For circular dichroism, isothermal titration calorimetry, tryptophan fluorescence, and dynamic light scattering experiments, liposomes were reconstructed and resuspendedwith phosphate-buffered saline (PBS; Welgene Inc, Gyeongsangbuk-do, Korea). For calcein-permeation tests, liposomes were reconstructed with calcein solutions (80 mM, 40 mM, 30 mM, 20 mM, and 10 mM) (Sigma, Darmstadt, Germany), purified with Sephadex-G50 columns (Pharmacia biotech, Stockholm, Sweden), and resuspended with PBS. Maximum-soluble -concentration measurements. […] turbidity with PBS. The lowest concentration of peptide without visible turbidity was determined to be the maximu m soluble concentration. Each experiment was performed at least twice. Circular dichroism (CD) spectrum. DMPC/PG -liposome, PC/cholesterol -liposome, and peptide stock solutions were diluted in PBS. For circular dichroism, PBS with neither liposome nor peptides was also prepared. Liposomes and peptides were mixed to […] Samples were transferred into type J/1 cuvettes (Jasco, Tokyo, Japan). Cuvettes were placed into the J -815 circular -dichroism spectrometer (Jasco, Tokyo, Japan). Measurement parameters were as follows: wavelength, 190 -260 nm; data pitch, 0.2 nm; bandwidth, 1.00 nm; […] Each experiment was performed in triplicate. Data below 197 nm was not analyzed because o f experimental difficulties in obtaining those spectra. Each experiment was performed at least twice. Artificial membrane calcein permeation measurements. Calcein fluorescence was used to measure peptide -induced liposome permeation. Calcein solutions (10 mM, 20 mM, or 60 mM) containing PC/PG liposomes and peptides were diluted in PBS ( ×1, ×2, ×3, ×8). […] Liposome solutions (180 μl) were transferred to wells of black, clear -bottomed 96 -well plates (Costar, New York, USA). Peptide […] Liposome-containing plates and peptide -containing plates were inserted into a Flexstation 3 Multi -Mode Microplate Reader (Molecular Devices, California, USA). Peptide solutions (20 μl) were transferred and mixed with liposome solution automatical ly after 30 sec. […] Measurement parameters were as follows: excitation, 490 nm; emission, 520 nm; temperature, 37 °C. […] was transferred and mixed with the liposome -peptide solu tions automatically after 300 sec to acquire fluorescence at maximum leakage. […] Fluorescence measured between 0 -300 sec after addition of 0 μg/ml peptide was considered the baseline. Each experiment was performed at least twice. Dynamic light scattering (DLS) measurements. Dynamic light scattering was used to measure peptide -induced liposome volume changes. PC/PG -liposome stock solutions and peptides were resuspended in PBS. Liposomes and peptides were mixed to […]

A. baumannii strains = assay: microbe, parasite or virus in culture; details: for Number of A. baumannii strains at MIC (μM) 0.63 / Number of A. baumannii strains at MIC (μM) 1.25 / Number of A. baumannii strains at MIC (μM) 2.5 / Number of A. baumannii strains at MIC (μM) 5 / Number of A. baumannii strains at MIC (μM) 10 / Number of A. baumannii strains at MIC (μM) ≤0.31 / Number of A. baumannii strains at MIC (μM) ≥20: of 30 strains
Experimental: Twenty-six A. baumannii strains were clinically isolated and gifted to us by the Kyungpook National University School of Medicine. One A. baumannii strain (ATCC 17978) was purchased and gifted to us by Kyungpook National University School of Medicine. One A. baumannii strain and 10 K. pneumoniae strains (NCCP) were purchased from the National Culture Collection for Pathogens.
To assess antimicrobial activity, the MIC50 and MIC90 were measured using broth microdilution following CLSI guidelines. […] Each experiment was performed in triplicate. Meropenem (Sigma, Darmstadt, Germany) and colistin were used as control antibiotics. Cation-adjusted Mueller–Hinton broth (CAMHB) (Becton, Dickinson and Company, Franklin Lakes, USA) with supplied calcium (50 mg/L) and magnesium (10 mg/L) was used for the CLSI-test condition. Bacteria in midlog phase and peptides were separately diluted in CAMHB. The bacteria and peptide solutions were then mixed in 96-well polyethylene plates (SPL, Gyeonggi-do, Korea) and incubated for 18 h at 37 °C. The final concentration for bacteria was 5 × 10^5 CFU/ml. […] The MIC was defined to be the lowest concentration of peptide without visible turbidity by comparing with control antibiotics with the unaided eye. […] Each experiment was performed in triplicate. MICs in albumin and acetic acid solutions were measured using the same protocol but with 0.2% bovine serum albumin (Bovogen, Keilor, Australia), 0.01% acetic acid (Merck, New Jersey, USA), and CAMHB with both calcium and magnesium. In addition, MICs used in the antibiotic resistance acquisition test, the outer–inner membrane permeation test, and the transmembrane potential test and for FE-SEM were individually determined. The final bacterial concentrations used were as follows: for resistance acquisition, optical density (OD) 0.01; for outer–inner membrane permeability assays (LB), OD 0.1; for the transmembrane potential test, 1 × 10^8 CFU/ml (OD 0.171); […]. Inhibitory activity unidentifiable by direct observation was determined by counting the CFUs. Each experiment was performed at least twice.

Row | Molecule | Number of A. baumannii strains at MIC (μM) 0.63 (A. baumannii strains) | Number of A. baumannii strains at MIC (μM) 1.25 (A. baumannii strains) | Number of A. baumannii strains at MIC (μM) 2.5 (A. baumannii strains) | Number of A. baumannii strains at MIC (μM) 5 (A. baumannii strains) | Number of A. baumannii strains at MIC (μM) 10 (A. baumannii strains) | Number of A. baumannii strains at MIC (μM) ≤0.31 (A. baumannii strains) | Number of A. baumannii strains at MIC (μM) ≥20 (A. baumannii strains) | MIC, A. baumannii ATCC 17978 (A. baumannii strains; strains, 18 h) [µM] | MIC, A. baumannii Isolated strain 1 (A. baumannii strains; strains, 18 h) [µM] | MIC, A. baumannii Isolated strain 3 (A. baumannii strains; strains, 18 h) [µM] | MIC, A. baumannii Isolated strain 6 (A. baumannii strains; strains, 18 h) [µM] | MIC, A. baumannii Isolated strain 10 (A. baumannii strains; strains, 18 h) [µM] | MIC, A. baumannii Isolated strain 14 (A. baumannii strains; strains, 18 h) [µM] | MIC, A. baumannii Isolated strain 15 (A. baumannii strains; strains, 18 h) [µM] | MIC, A. baumannii Isolated strain 16 (A. baumannii strains; strains, 18 h) [µM] | MIC, A. baumannii Isolated strain 19 (A. baumannii strains; strains, 18 h) [µM] | MIC, A. baumannii Isolated strain 22 (A. baumannii strains; strains, 18 h) [µM] | MIC, A. baumannii Isolated strain 39 (A. baumannii strains; strains, 18 h) [µM] | MIC, A. baumannii Isolated strain 44 (A. baumannii strains; strains, 18 h) [µM] | MIC, A. baumannii Isolated strain 66 (A. baumannii strains; strains, 18 h) [µM] | further results
1 | CC[C@@H](C)[C@@H](NC(=O)[C@@H](Cc1c[nH]c2ccccc12)NC(=O)[C@@H](CCCNC(=N)N)NC(=O)[C@@H](CCCNC(=N)N)NC(=O)[C@H](N)CCCNC(=N)N)C(=O)N[C@H](Cc1c[nH]c2ccccc12)C(=O)N[C@@H](C(=O)N[C@@H](C(=O)N[C@H](Cc1c[nH]c2ccccc12)C(=O)N[C@H](CCCCN)C(N)=O)[C@H](C)CC)C(C)C [WCopW43] (H-[dR][dR][dR][dW][dI][dW][dV][dI][dW][dK]-NH2) | 15 | 14 | 0 | 0 | 0 | 1 | 0 | 1.25 (≈ 1.87 µg/mL) | 1.25 (≈ 1.87 µg/mL) | 1.25 (≈ 1.87 µg/mL) | 0.63 (≈ 0.944 µg/mL) | 0.63 (≈ 0.944 µg/mL) | 1.25 (≈ 1.87 µg/mL) | 0.63 (≈ 0.944 µg/mL) | 1.25 (≈ 1.87 µg/mL) | 0.63 (≈ 0.944 µg/mL) | 0.63 (≈ 0.944 µg/mL) | 0.63 (≈ 0.944 µg/mL) | 1.25 (≈ 1.87 µg/mL) | 1.25 (≈ 1.87 µg/mL) | Turbidity in PBS ([1]; 10 mg/ml peptide in PBS): turbid; MIC50 (A. baumannii strains; strains, 18 h): 0.63 µM (≈ 0.944 µg/mL); MIC, A. baumannii Isolated strain 68 (A. baumannii strains; strains, 18 h): 1.25 µM (≈ 1.87 µg/mL); MIC, A. baumannii Isolated strain 69 (A. baumannii strains; strains, 18 h): 0.63 µM (≈ 0.944 µg/mL); MIC, A. baumannii Isolated strain 71 (A. baumannii strains; strains, 18 h): 0.63 µM (≈ 0.944 µg/mL); MIC, A. baumannii Isolated strain 76 (A. baumannii strains; strains, 18 h): < 0.31 µM; MIC, A. baumannii Isolated strain 80 (A. baumannii strains; strains, 18 h): 0.63 µM (≈ 0.944 µg/mL); MIC, A. baumannii Isolated strain 82 (A. baumannii strains; strains, 18 h): 0.63 µM (≈ 0.944 µg/mL); MIC, A. baumannii Isolated strain 86 (A. baumannii strains; strains, 18 h): 0.63 µM (≈ 0.944 µg/mL); MIC, A. baumannii Isolated strain 89 (A. baumannii strains; strains, 18 h): 1.25 µM (≈ 1.87 µg/mL); MIC, A. baumannii Isolated strain 102 (A. baumannii strains; strains, 18 h): 0.63 µM (≈ 0.944 µg/mL); MIC, A. baumannii Isolated strain 127 (A. baumannii strains; strains, 18 h): 1.25 µM (≈ 1.87 µg/mL); MIC, A. baumannii Isolated strain 141 (A. baumannii strains; strains, 18 h): 0.63 µM (≈ 0.944 µg/mL); MIC, A. baumannii Isolated strain 144 (A. baumannii strains; strains, 18 h): 1.25 µM (≈ 1.87 µg/mL); MIC, A. baumannii Isolated strain 147 (A. baumannii strains; strains, 18 h): 1.25 µM (≈ 1.87 µg/mL); MIC, A. baumannii Isolated strain 152 (A. baumannii strains; strains, 18 h): 0.63 µM (≈ 0.944 µg/mL); MIC, A. baumannii KCCM 40203 (A. baumannii strains; strains, 18 h): 0.63 µM (≈ 0.944 µg/mL); MIC, A. baumannii NCCP 14654 (A. baumannii strains; strains, 18 h): 1.25 µM (≈ 1.87 µg/mL)
2 | CC[C@@H](C)[C@@H](NC(=O)[C@@H](Cc1c[nH]c2ccccc12)NC(=O)[C@H](NC(=O)[C@@H](CC(C)C)NC(=O)[C@H](N)Cc1c[nH]c2ccccc12)C(C)C)C(=O)N[C@H](Cc1c[nH]c2ccccc12)C(=O)N[C@H](CCCNC(=N)N)C(=O)N[C@H](CCCNC(=N)N)C(=O)N[C@H](CCCNC(=N)N)C(N)=O [WCopW29] (H-[dW][dL][dV][dW][dI][dW][dR][dR][dR]-NH2) | 3 | 25 | 2 | 0 | 0 | 0 | 0 | 2.5 (≈ 3.42 µg/mL) | 1.25 (≈ 1.71 µg/mL) | 2.5 (≈ 3.42 µg/mL) | 1.25 (≈ 1.71 µg/mL) | 1.25 (≈ 1.71 µg/mL) | 1.25 (≈ 1.71 µg/mL) | 1.25 (≈ 1.71 µg/mL) | 1.25 (≈ 1.71 µg/mL) | 1.25 (≈ 1.71 µg/mL) | 1.25 (≈ 1.71 µg/mL) | 1.25 (≈ 1.71 µg/mL) | 1.25 (≈ 1.71 µg/mL) | 1.25 (≈ 1.71 µg/mL) | Maximum soluble concentration in PBS [1]: > 200 µM; MIC, A. baumannii ATCC BBA 1605 (A. baumannii strains; strains, 18 h): 0.63 µM (≈ 0.863 µg/mL); MIC, A. baumannii Isolated strain 68 (A. baumannii strains; strains, 18 h): 1.25 µM (≈ 1.71 µg/mL); MIC, A. baumannii Isolated strain 69 (A. baumannii strains; strains, 18 h): 1.25 µM (≈ 1.71 µg/mL); MIC, A. baumannii Isolated strain 71 (A. baumannii strains; strains, 18 h): 1.25 µM (≈ 1.71 µg/mL); MIC, A. baumannii Isolated strain 76 (A. baumannii strains; strains, 18 h): 1.25 µM (≈ 1.71 µg/mL); MIC, A. baumannii Isolated strain 80 (A. baumannii strains; strains, 18 h): 0.63 µM (≈ 0.863 µg/mL); MIC, A. baumannii Isolated strain 82 (A. baumannii strains; strains, 18 h): 1.25 µM (≈ 1.71 µg/mL); MIC, A. baumannii Isolated strain 86 (A. baumannii strains; strains, 18 h): 0.63 µM (≈ 0.863 µg/mL); MIC, A. baumannii Isolated strain 89 (A. baumannii strains; strains, 18 h): 1.25 µM (≈ 1.71 µg/mL); MIC, A. baumannii Isolated strain 102 (A. baumannii strains; strains, 18 h): 1.25 µM (≈ 1.71 µg/mL); MIC, A. baumannii Isolated strain 127 (A. baumannii strains; strains, 18 h): 1.25 µM (≈ 1.71 µg/mL); MIC, A. baumannii Isolated strain 141 (A. baumannii strains; strains, 18 h): 1.25 µM (≈ 1.71 µg/mL); MIC, A. baumannii Isolated strain 144 (A. baumannii strains; strains, 18 h): 1.25 µM (≈ 1.71 µg/mL); MIC, A. baumannii Isolated strain 147 (A. baumannii strains; strains, 18 h): 1.25 µM (≈ 1.71 µg/mL); MIC, A. baumannii Isolated strain 152 (A. baumannii strains; strains, 18 h): 1.25 µM (≈ 1.71 µg/mL); MIC, A. baumannii KCCM 40203 (A. baumannii strains; strains, 18 h): 1.25 µM (≈ 1.71 µg/mL); MIC, A. baumannii NCCP 14654 (A. baumannii strains; strains, 18 h): 1.25 µM (≈ 1.71 µg/mL)
3 | WLVWIWRRR-NH2 [LWCopW29] |  |  |  |  |  |  |  |  |  |  |  |  |  |  |  |  |  |  |  |  | Maximum soluble concentration in PBS [1]: > 200 µM
